Data: ChEMBL document CHEMBL5543091, “Exploring structural determinants of neuroprotection bias on novel glypromate conjugates with bioactive amines” (2024)
Several values for one entry are separate records, joined by “and”; a condition that tells them apart may be missing. Identical values can stand only once. Activity calls are given as the source filed them. The rule behind the calls is not given here.

How the values were obtained:
SH-SY5Y [1] = experiment: Cytotoxicity against non-differentiated human SH-SY5Y cells assessed as reduction in cell viability measured after 24 hrs by MTT reduction assay relative to control; format: functional; parameters: concentration or dose not given beside the values
SH-SY5Y [2] = experiment: Neuroprotective activity against Amyloid beta(25 to 35)-induced cell injury in non-differentiated human SH-SY5Y cells assessed as reduction in formation of protein aggregates at 100 uM incubated for 24 hrs by ThT fluorescence assay; format: functional; parameters: scale not given: the % may be the effect or the level left
SH-SY5Y [3] = experiment: Cytotoxicity against differentiated human SH-SY5Y cells assessed as reduction in cell viability at 100 uM measured after 48 hrs by MTT reduction assay relative to control; format: functional
SH-SY5Y [4] = experiment: Neuroprotective activity against 6-OHDA-induced cytotoxicity in differentiated human SH-SY5Y cells at 100 uM incubated for 48 hrs followed by exposure to 6-OHDA by MTT reduction assay (reference value: 61.50+/-7.43%); format: functional; parameters: scale not given: the % may be the effect or the level left
SH-SY5Y [5] = experiment: Neuroprotective activity against 6-OHDA-induced cytotoxicity in differentiated human SH-SY5Y cells at 100 uM incubated for 48 hrs followed by exposure to 6-OHDA in presence of memantine by MTT reduction assay; format: functional, cell-based
SH-SY5Y [6] = experiment: Neuroprotective activity against Amyloid beta(25 to 35)-induced cell injury in non-differentiated human SH-SY5Y cells assessed as reduction in formation of protein aggregates at 100 uM incubated for 24 hrs in presence of glypromate by ThT fluorescence assay; format: functional; parameters: scale not given: the % may be the effect or the level left
SH-SY5Y [7] = experiment: Neuroprotective activity against 6-OHDA-induced cytotoxicity in differentiated human SH-SY5Y cells at 100 uM incubated for 48 hrs followed by exposure to 6-OHDA by MTT reduction assay; format: functional, cell-based
SH-SY5Y [8] = experiment: Neuroprotective activity against 6-OHDA-induced cytotoxicity in differentiated human SH-SY5Y cells at 100 uM incubated for 48 hrs followed by exposure to 6-OHDA in presence of glypromate by MTT reduction assay; format: functional, cell-based
SH-SY5Y [9] = experiment: Neuroprotective activity in Amyloid beta(25 to 35)-induced non-differentiated human SH-SY5Y cells assessed as fold increase in protein aggregation reduction 100 uM incubated for 24 hrs by ThT fluorescence assay; format: functional
SH-SY5Y [10] = experiment: Neuroprotective activity against Amyloid beta(25 to 35)-induced cell injury in non-differentiated human SH-SY5Y cells assessed as reduction in formation of protein aggregates at 100 uM incubated for 24 hrs by fluorescence microscopy based analysis; format: functional

Compound `COC(=O)CC[C@H](NC(=O)[C@@H]1CCCN1C(=O)CNC(=O)OC(C)(C)C)C(=O)NC12CC3CC(CC(C3)C1)C2` has an Activity (SH-SY5Y [1]) of 89.28% and an Activity (SH-SY5Y [2]) of 80.35%.

Compound `COC(=O)[C@H](CCC(=O)NC12CC3CC(C)(CC(C)(C3)C1)C2)NC(=O)[C@@H]1CCCN1C(=O)CN(C)C` has an Activity (SH-SY5Y [1]) of less than 85%, an Activity (SH-SY5Y [3]) of 99.94% and an Activity (SH-SY5Y [4]) of 65.16%.

Work on `COC(=O)[C@H](CCC(=O)NC12CC3CC(CC(C3)C1)C2)NC(=O)[C@@H]1CCCN1C(=O)CN(C)C` yielded an Activity (SH-SY5Y [1]) of 86.22%.

With `COC(=O)[C@H](CCC(=O)NC12CC3CC(C)(CC(C)(C3)C1)C2)NC(=O)[C@@H]1CCCCN1C(=O)CN.O=C(O)C(F)(F)F` the Activity (SH-SY5Y [1]) was less than 85% and the Activity (SH-SY5Y [3]) was less than 25%.

With `COC(=O)CC[C@H](NC(=O)[C@@H]1CCCCN1C(=O)CN)C(=O)N[C@@H]1CCc2ccccc21.O=C(O)C(F)(F)F` the Activity (SH-SY5Y [1]) was 94.96%, the Activity (SH-SY5Y [3]) was 98.85% and the Activity (SH-SY5Y [2]) was 129.25%.

`COC(=O)CC[C@H](NC(=O)[C@@H]1CCCN1C(=O)CN)C(=O)NC12CC3CC(C)(CC(C)(C3)C1)C2.O=C(O)C(F)(F)F` showed an Activity (SH-SY5Y [1]) of less than 85% and an Activity (SH-SY5Y [3]) of 97.3%.

For `COC(=O)[C@H](CCC(=O)NC12CC3CC(CC(C3)C1)C2)NC(=O)[C@@H]1CCCCN1C(=O)CN(C)C`, the Activity (SH-SY5Y [1]) was less than 85% and the Activity (SH-SY5Y [3]) was less than 25%.

With `COC(=O)[C@H](CCC(=O)N[C@@H]1CCc2ccccc21)NC(=O)[C@@H]1CCCCN1C(=O)CN(C)C` the Activity (SH-SY5Y [1]; 24 h) was 97.03% and <85%.

`COC(=O)CC[C@H](NC(=O)[C@@H]1CCCCN1C(=O)CNC(=O)OC(C)(C)C)C(=O)N[C@@H]1CCc2ccccc21` was tested, and the Activity (SH-SY5Y [1]) was 97.28%, the Activity (SH-SY5Y [3]) was 99.35% and the Activity (SH-SY5Y [2]) was 120.05%.

With `COC(=O)[C@H](CCC(=O)NC12CC3CC(CC(C3)C1)C2)NC(=O)[C@@H]1CCCN1C(=O)CN.O=C(O)C(F)(F)F` the Activity (SH-SY5Y [1]) was 89.04%.

With `COC(=O)[C@H](CCC(=O)NC12CC3CC(CC(C3)C1)C2)NC(=O)[C@@H]1CCCCN1C(=O)CN.O=C(O)C(F)(F)F` the Activity (SH-SY5Y [1]) was 87.9%.

In the case of `NCC(=O)N1CCC[C@H]1C(=O)N[C@@H](CCC(=O)O)C(=O)O`, the Activity (SH-SY5Y [5]) is reported as “inactive” and the Activity (SH-SY5Y [2]) is reported as 87.78%.

Compound `COC(=O)CC[C@H](NC(=O)[C@@H]1CCCCN1C(=O)CNC(=O)OC(C)(C)C)C(=O)NC12CC3CC(C)(CC(C)(C3)C1)C2` has an Activity (SH-SY5Y [1]) of less than 85% and an Activity (SH-SY5Y [3]) of 94.5%.

`COC(=O)CC[C@H](NC(=O)[C@@H]1CCCCN1C(=O)CN(C)C)C(=O)NC12CC3CC(C)(CC(C)(C3)C1)C2` was tested, and the Activity (SH-SY5Y [1]) was less than 85% and the Activity (SH-SY5Y [3]) was less than 25%.

Work on `COC(=O)CC[C@H](NC(=O)[C@@H]1CCCN1C(=O)CN(C)C)C(=O)NC12CC3CC(CC(C3)C1)C2` yielded an Activity (SH-SY5Y [1]) of 91.14%, an Activity (SH-SY5Y [3]) of 107.67% and an Activity (SH-SY5Y [4]) of 68.03%. The Activity (SH-SY5Y [2]) was 79.52%.

With `COC(=O)[C@H](CCC(=O)NC12CC3CC(C)(CC(C)(C3)C1)C2)NC(=O)[C@@H]1CCCN1C(=O)CN.O=C(O)C(F)(F)F` the Activity (SH-SY5Y [1]) was less than 85%.

Work on `N[C@@H]1CCc2ccccc21` yielded an Activity (SH-SY5Y [2]) of 38% and an Activity (SH-SY5Y [6]) of 79.68%.

Compound `COC(=O)CC[C@H](NC(=O)[C@@H]1CCCCN1C(=O)CN)C(=O)NC12CC3CC(CC(C3)C1)C2.O=C(O)C(F)(F)F` has an Activity (SH-SY5Y [1]) of 92.68%, an Activity (SH-SY5Y [3]) of 97.33% and an Activity (SH-SY5Y [2]) of 132.48%.

For `COC(=O)[C@H](CCC(=O)N[C@@H]1CCc2ccccc21)NC(=O)[C@@H]1CCCCN1C(=O)CN.O=C(O)C(F)(F)F`, the Activity (SH-SY5Y [1]) was 89.37%.

For `COC(=O)CC[C@H](NC(=O)[C@@H]1CCCCN1C(=O)CNC(=O)OC(C)(C)C)C(=O)NC12CC3CC(CC(C3)C1)C2`, the Activity (SH-SY5Y [1]) was 92.73%, the Activity (SH-SY5Y [3]) was 101.45% and the Activity (SH-SY5Y [2]) was 133.03%.

Work on `COC(=O)CC[C@H](NC(=O)[C@@H]1CCCN1C(=O)CN)C(=O)NC12CC3CC(CC(C3)C1)C2.O=C(O)C(F)(F)F` yielded an Activity (SH-SY5Y [1]) of 94.84%, an Activity (SH-SY5Y [3]) of 109.73% and an Activity (SH-SY5Y [4]) of 67.28%.

In the case of `COC(=O)CC[C@H](NC(=O)[C@@H]1CCCCN1C(=O)CN)C(=O)NC12CC3CC(C)(CC(C)(C3)C1)C2.O=C(O)C(F)(F)F`, the Activity (SH-SY5Y [1]) is reported as less than 85% and the Activity (SH-SY5Y [3]) is reported as less than 25%.

`COC(=O)CC[C@H](NC(=O)[C@@H]1CCCN1C(=O)CNC(=O)OC(C)(C)C)C(=O)N[C@@H]1CCc2ccccc21` was tested, and the Activity (SH-SY5Y [1]) was less than 85%.

Work on `COC(=O)[C@H](CCC(=O)NC12CC3CC(C)(CC(C)(C3)C1)C2)NC(=O)[C@@H]1CCCCN1C(=O)CNC(=O)OC(C)(C)C` yielded an Activity (SH-SY5Y [1]) of less than 85% and an Activity (SH-SY5Y [3]) of 91.53%.

`COC(=O)CC[C@H](NC(=O)[C@@H]1CCCCN1C(=O)CN(C)C)C(=O)N[C@@H]1CCc2ccccc21` was tested, and the Activity (SH-SY5Y [1]; 24 h) was 95.12% and <85% and the Activity (SH-SY5Y [3]) was 94.5%.

`COC(=O)[C@H](CCC(=O)NC12CC3CC(C)(CC(C)(C3)C1)C2)NC(=O)[C@@H]1CCCCN1C(=O)CN(C)C` gave an Activity (SH-SY5Y [1]) of less than 85% and an Activity (SH-SY5Y [3]) of less than 25%.

For `CC12CC3CC(C)(C1)CC(N)(C3)C2`, the Activity (SH-SY5Y [7]) was “inactive” and the Activity (SH-SY5Y [8]) was “inactive”.

`COC(=O)[C@H](CCC(=O)NC12CC3CC(C)(CC(C)(C3)C1)C2)NC(=O)[C@@H]1CCCN1C(=O)CNC(=O)OC(C)(C)C` showed an Activity (SH-SY5Y [1]) of less than 85%.

With `COC(=O)CC[C@H](NC(=O)[C@@H]1CCCN1C(=O)CN)C(=O)N[C@@H]1CCc2ccccc21.O=C(O)C(F)(F)F` the Activity (SH-SY5Y [1]) was 87.33%, the Activity (SH-SY5Y [3]) was 98.44% and the Activity (SH-SY5Y [4]) was 65.5%. For the same compound, the Activity (SH-SY5Y [2]) was 62.25%, the “fold change (FC)” value (SH-SY5Y [9]) was 3.2 and the Activity (SH-SY5Y [10]) was “Active”.

Work on `COC(=O)CC[C@H](NC(=O)[C@@H]1CCCN1C(=O)CNC(=O)OC(C)(C)C)C(=O)NC12CC3CC(C)(CC(C)(C3)C1)C2` yielded an Activity (SH-SY5Y [1]) of less than 85%.

`COC(=O)[C@H](CCC(=O)N[C@@H]1CCc2ccccc21)NC(=O)[C@@H]1CCCN1C(=O)CN(C)C` showed an Activity (SH-SY5Y [1]) of 99.51%, an Activity (SH-SY5Y [3]) of 99.49% and an Activity (SH-SY5Y [2]) of 81.51%.

`COC(=O)CC[C@H](NC(=O)[C@@H]1CCCCN1C(=O)CN(C)C)C(=O)NC12CC3CC(CC(C3)C1)C2` was tested, and the Activity (SH-SY5Y [1]) was 93.57%.

Work on `COC(=O)CC[C@H](NC(=O)[C@@H]1CCCN1C(=O)CN(C)C)C(=O)N[C@@H]1CCc2ccccc21` yielded an Activity (SH-SY5Y [1]) of 93.5%, an Activity (SH-SY5Y [3]) of 104.91% and an Activity (SH-SY5Y [2]) of 69.21%.

`COC(=O)[C@H](CCC(=O)N[C@@H]1CCc2ccccc21)NC(=O)[C@@H]1CCCCN1C(=O)CNC(=O)OC(C)(C)C` gave an Activity (SH-SY5Y [1]) of 96.69% and an Activity (SH-SY5Y [2]) of 120.77%.

Work on `COC(=O)[C@H](CCC(=O)N[C@@H]1CCc2ccccc21)NC(=O)[C@@H]1CCCN1C(=O)CNC(=O)OC(C)(C)C` yielded an Activity (SH-SY5Y [1]) of less than 85%.

With `COC(=O)[C@H](CCC(=O)N[C@@H]1CCc2ccccc21)NC(=O)[C@@H]1CCCN1C(=O)CN.O=C(O)C(F)(F)F` the Activity (SH-SY5Y [1]) was 94.4%, the Activity (SH-SY5Y [3]) was 98.02% and the Activity (SH-SY5Y [2]) was 57.42%. The “fold change (FC)” value (SH-SY5Y [9]) was 3.6 and the Activity (SH-SY5Y [10]) was “Active”.

`COC(=O)[C@H](CCC(=O)NC12CC3CC(CC(C3)C1)C2)NC(=O)[C@@H]1CCCN1C(=O)CNC(=O)OC(C)(C)C` showed an Activity (SH-SY5Y [1]) of less than 85%.

`COC(=O)[C@H](CCC(=O)NC12CC3CC(CC(C3)C1)C2)NC(=O)[C@@H]1CCCCN1C(=O)CNC(=O)OC(C)(C)C` showed an Activity (SH-SY5Y [1]) of 92.96%, an Activity (SH-SY5Y [3]) of 91.13% and an Activity (SH-SY5Y [2]) of 127.26%.

With `COC(=O)CC[C@H](NC(=O)[C@@H]1CCCN1C(=O)CN(C)C)C(=O)NC12CC3CC(C)(CC(C)(C3)C1)C2` the Activity (SH-SY5Y [1]) was less than 85%, the Activity (SH-SY5Y [3]) was 103.96% and the Activity (SH-SY5Y [4]) was 70.93%.
